Values of other authors in paper PMC11859340, “The Therapeutic Potential of Spirooxindoles in Cancer: A Focus on p53–MDM2 Modulation” (Pharmaceuticals, 2025).
Like-named read-outs stand apart in the source and are kept apart here. Each block holds one molecule with its values, some of them ahead of it.

What was measured:
HCT116 (p53^+/+) = test system: HCT116 (p53^+/+); parameters: method as in doi:10.1039/C5MD00450K; conditions: read-out: GI50 against HCT116 (p53^+/+)
HCT116 (p53^−/−) [1] = test system: HCT116 (p53^−/−); parameters: method as in doi:10.1039/C5MD00450K; conditions: read-out: GI50 against HCT116 (p53^−/−)
[2] = test system: HepG2 (liver, wild p53 type); parameters: method as in doi:10.1039/C5MD00450K; conditions: read-out: GI50 against HepG2
[3] = test system: SW620 (colon, mutant p53); parameters: method as in doi:10.1039/C5MD00450K; conditions: read-out: GI50 against SW620
A549 (lung) [4] = test system: A549 (lung); parameters: method as in PMID 26883465; conditions: MTT; read-out: IC50 against A549
HCT116 (colon) [5] = test system: HCT116 (colon); parameters: method as in PMID 26883465; conditions: MTT; read-out: IC50 against HCT116
MDA-MB-231 (breast) [6] = test system: MDA-MB-231 (breast); parameters: method as in PMID 26883465; conditions: MTT; read-out: IC50 against MDA-MB-231
A549 (lung) [7] = test system: A549 (lung); parameters: method as in PMID 28797774; conditions: CCK-8; read-out: IC50 against A549
HCT116 (colon) [8] = test system: HCT116 (colon); parameters: method as in PMID 28797774; conditions: CCK-8; read-out: IC50 against HCT116
MCF7 (breast) [9] = test system: MCF7 (breast); parameters: method as in PMID 28797774; conditions: CCK-8; read-out: IC50 against MCF7
neuroblastoma = test system: neuroblastoma; parameters: method as in PMID 29416773; conditions: oral 50 mg/kg body weight for 50 days, 4 days on and 2 days off
[10] = test system: osteosarcoma, acute leukemia, prostate, colon, and dedifferentiated liposarcoma cancers; conditions: mouse xenograft models
MDA-MB-231 (breast) [11] = test system: MDA-MB-231 (breast); parameters: method as in PMID 36174446; conditions: MTT; read-out: IC50 against MDA-MB-231
PC3 (prostate) = test system: PC3 (prostate); parameters: method as in PMID 36174446; conditions: MTT; read-out: IC50 against PC3
HCT-116 (colon) = test system: HCT-116 (colon); parameters: method as in PMID 36174446; conditions: MTT; read-out: IC50 against HCT-116
A549 (lung) [12] = test system: A549 (lung); parameters: method as in PMID 36174446; conditions: MTT; read-out: IC50 against A549
MDM2 [13] = molecular target: MDM2; parameters: method as in PMID 36174446; conditions: read-out: KD against MDM2
p53 = test system: p53; parameters: method as in PMID 37175323; conditions: 22Rv1 and LNCaP, dose-dependent
MDM2 [14] = test system: MDM2; parameters: method as in PMID 37175323; conditions: induction of protein degradation
MD-MB-231 = test system: MD-MB-231; parameters: method as in PMID 25618595; conditions: MTT; read-out: IC50 against MD-MB-231
MCF7 = test system: MCF7; parameters: method as in PMID 25618595; conditions: MTT; read-out: IC50 against MCF7
[15] = test system: HepG2 (hepatocellular wild p53 type); parameters: method as in PMID 24268795; conditions: read-out: GI50 against HepG2
HCT116 (p53^−/−) [16] = test system: HCT116 (p53^−/−); parameters: method as in PMID 24268795; conditions: read-out: GI50 against HCT116 (p53^−/−)
A549 (lung) [17] = test system: A549 (lung); parameters: method as in PMID 29302672; conditions: at 10 μM, CCK-8
MCF7 (breast) [18] = test system: MCF7 (breast); parameters: method as in PMID 29302672; conditions: at 10 μM, CCK-8
HCT116 (colon) [19] = test system: HCT116 (colon); parameters: method as in PMID 29302672; conditions: at 10 μM, CCK-8
lung A549 = test system: lung A549; parameters: method as in PMID 31047751; conditions: CCK-8
breast MCF7 = test system: breast MCF7; parameters: method as in PMID 31047751; conditions: CCK-8
colon HCT116 = test system: colon HCT116; parameters: method as in PMID 31047751; conditions: at 10 μM, CCK-8

Structure (SMILES): CC1(C)CCC2(CC1)N[C@@H](C(=O)N[C@@H]1CC[C@@H](C(N)=O)OC1)[C@H](c1ccnc(Cl)c1F)[C@]21C(=O)Nc2cc(Cl)ccc21 [Milademetan]
tumor growth and survival (neuroblastoma): tumor growth inhibition and extended survival

Structure (SMILES): CC(C)(C)C[C@@H]1N[C@@H](C(=O)N[C@H]2CC[C@H](O)CC2)[C@H](c2cccc(Cl)c2F)[C@]12C(=O)Nc1cc(Cl)ccc12 [SAR405838]
cancer inhibition [10]: recognizable or complete cancer inhibition

Structure (SMILES): O=C(c1nc2ccccc2[nH]1)[C@H]1[C@H](c2ccccc2)C2CC3CCCCC3N2[C@]12C(=O)Nc1ccc(Cl)cc12 (stereo partly shown) [compound 38]
IC50 (MDA-MB-231 (breast) [11]): 2.4 ± 0.2 µM | IC50 (PC3 (prostate)): 3.4 ± 0.3 µM | IC50 (HCT-116 (colon)): 7.2 ± 0.3 µM | IC50 (A549 (lung) [12]): 7.8 ± 0.3 µM | Kd (MDM2 [13]): 7.94 µM

Structure (SMILES): COc1cc(C(N)=O)ccc1NC(=O)[C@H]1[C@H](c2cccc(Cl)c2F)C2(C(=O)Nc3cc(Cl)ccc32)[C@H](CC(C)(C)C)N1C(=O)OCCOCCOCCOCCOC(=O)N1[C@@H](CC(C)(C)C)[C@@]2(C(=O)Nc3cc(Cl)ccc32)[C@@H](c2cccc(Cl)c2F)[C@@H]1C(=O)Nc1ccc(C(N)=O)cc1OC (stereo partly shown) [compound 44]
p53 levels (p53): increase in p53 levels | MDM2 level (MDM2 [14]): Downregulation of MDM2

Now from value to molecule, other results behind:

GI50 (HCT116 (p53^+/+)): 2 µM | GI50 (HCT116 (p53^−/−) [1]): 2.9 ± 0.2 µM | GI50 [2]: 2.1 µM | GI50 [3]: 2.1 ± 0.3 µM
Structure (SMILES): O=C1Nc2ccc(Br)cc2[C@]12ON=C(c1cccc(Cl)c1)N2c1cccc(Cl)c1 [110 (R^1 = 5-Br, R^2 = 3-Cl, R^3 = 3-Cl)]

IC50 (A549 (lung) [4]): 1.67 µM | IC50 (HCT116 (colon) [5]): 1.57 µM | IC50 (MDA-MB-231 (breast) [6]): 3.55 µM
Structure (SMILES): COC(=O)C[C@@H]1CS[C@]2(C(=O)Nc3cccc(Br)c32)[C@H](c2ccc(Br)cc2)[C@H]1C=O [136 (R = 4-Br, R’ = 4-BrC6H4)]

IC50 (A549 (lung) [7]): 2.9 ± 0.2 µM | IC50 (HCT116 (colon) [8]): 1.8 ± 0.5 µM | IC50 (MCF7 (breast) [9]): 2.4 ± 0.1 µM
Structure (SMILES): CCN(CC)c1ccc(N2C[C@H]3[C@@H](CS[C@]4(C(=O)Nc5cccc(Br)c54)[C@@H]3c3ccc(Br)cc3)CC2=O)cc1 [143 (R = 4-(4-diethylamino)C6H4)]

IC50 (MCF7): 11.6 µM | GI50 [15]: 51.3 ± 1.04 µM | GI50 (HCT116 (p53^−/−) [16]): 52.3 ± 1.15 µM | IC50 (A549 (lung) [4]): 2.22 µM | IC50 (HCT116 (colon) [5]): 1.16 µM | IC50 (MDA-MB-231 (breast) [6]): 4.68 µM | IC50 (A549 (lung) [7]): 10 ± 0.8 µM | IC50 (HCT116 (colon) [8]): 14.9 ± 0.6 µM | IC50 (MCF7 (breast) [9]): 28.4 ± 2.5 µM | IC50 (lung A549; read-out: IC50 against A549): 2.4 µM | IC50 (breast MCF7; read-out: IC50 against MCF7): 12.1 µM
Structure (SMILES): COc1ccc(C2=N[C@@H](c3ccc(Cl)cc3)[C@@H](c3ccc(Cl)cc3)N2C(=O)N2CCNC(=O)C2)c(OC(C)C)c1 [nutlin-3, reference compound]
IC50 (MD-MB-231): 23.5 µM | % inhibition, A549 (A549 (lung) [17]): 42.9% | % inhibition, MCF7 (MCF7 (breast) [18]): 33.1% | % inhibition, HCT116 (HCT116 (colon) [19]): 42.9% | % inhibition, A549 (lung A549; at 10 μM): 47.0% | % inhibition, MCF7 (breast MCF7; at 10 μM): 32.8% | % inhibition, HCT116 (colon HCT116): 64.4%
